# Counter-ions that a name gives are not always drawn.
# Test system: TNFα levels in LPS stimulated whole blood
# Assay: LPS Stimulated Whole Blood Measuring TNFα Levels Assay
# Assay type: cell-based
# Conditions: LPS 200 ng/ml, 24 hours, read-out: pIC50 (TNFα levels) (converted)
# Protocol: LPS Stimulated Whole Blood Measuring TNFα Levels Assay
# (§1) Activation of monocytic cells by agonists of toll-like receptors such as bacterial lipopolysaccharide (LPS) results in production of key inflammatory mediators including TNFα. Such pathways are widely considered to be central to the pathophysiology of a range of auto-immune and inflammatory disorders.
# (§2) Compounds to be tested are diluted to give a range of appropriate concentrations and 1 ul of the dilution stocks is added to wells of a 96 plate. Following addition of whole blood (130 ul) the plates are incubated at 37 degrees (5% CO2) for 30 min before the addition of 10 ul of 2.8 ug/ml LPS, diluted in complete RPMI 1640 (final concentration=200 ng/ml), to give a total volume of 140 ul per well. After further incubation for 24 hours at 37 degrees, 140 ul of PBS are added to each well. The plates are sealed, shaken for 10 minutes and then centrifuged (2500 rpm×10 min). 100 ul of the supernatant are removed and TNFα levels assayed by immunoassay (typically by MesoScale Discovery technology) either immediately or following storage at −20 degrees. Dose response curves for each compound was generated from the data and an IC50 value was calculated.
row,IC50,Compound
1,≤ 10 µM,"CC(=O)N1c2ccc(-c3ccc(C(=O)O)cc3)cc2[C@@H](Nc2ccccc2)C[C@H]1C (stereo in doubt) [Example 91, 4-[1-Acetyl-2-methyl-4-(phenylamino)-1,2,3,4-tetrahydro-6-quinolinyl]benzoic acid]"
2,≤ 10 µM,CC(=O)N1c2ccc(-c3ccc(C(=O)O)cc3)cc2[C@@H](Nc2cccc(F)c2)C[C@H]1C [Example 179]

# The next lines start with the molecule.
row,Compound,IC50
1,"CC(=O)N1c2ccc(-c3ccc(CN4CCCCC4)cc3)cc2[C@@H](Nc2ccc(C(F)(F)F)cn2)C[C@H]1C (racemic) [Example 134, (cis)-1-Acetyl-2-methyl-6-[4-(1-piperidinylmethyl)phenyl]-N-[5-(trifluoromethyl)-2-pyridinyl]-1,2,3,4-tetrahydro-4-quinolinamine formate salt]",≤ 10 µM
2,"CC(=O)N1c2ccc(-c3ccc(CN4CCCCC4)cc3)cc2[C@@H](Nc2ccc(C)cn2)C[C@H]1C (racemic) [Example 135, (cis)-1-Acetyl-2-methyl-N-(5-methyl-2-pyridinyl)-6-[4-(1-piperidinylmethyl)phenyl]-1,2,3,4-tetrahydro-4-quinolinamine formate salt]",≤ 10 µM
3,"CC(=O)N1c2ccc(-c3ccc(CN4CCCCC4)cc3)cc2[C@@H](Nc2ccccn2)C[C@H]1C (racemic) [Example 133, (cis)-1-Acetyl-2-methyl-6-[4-(1-pipendinylmethyl)phenyl]-N-2-pyridinyl-1,2,3,4-tetrahydro-4-quinolinamine formate salt]",≤ 10 µM
4,CCC[C@@H]1C[C@H](Nc2ccc(C)cc2)c2cc(-c3ccc(CN4CCCCC4)cc3)ccc2N1C(C)=O [Example 189],≤ 10 µM
5,"CC[C@@H]1C[C@H](Nc2ccccc2)c2cc(-c3ccc(CN4CCCCC4)cc3)ccc2N1C(C)=O (relative stereo) [Example 163, (cis)-1-Acetyl-2-ethyl-N-phenyl-6-[4-(1-piperidinylmethyl)phenyl]-1,2,3,4-tetrahydro-4-quinolinamine formate salt]",≤ 10 µM
6,"CNCc1ccc(-c2ccc3c(c2)[C@H](Nc2ccc(F)cn2)C[C@H](C)N3C(C)=O)cc1 [Example 157, (2S,4R)-1-Acetyl-N-(5-fluoro-2-pyridinyl)-2-methyl-6-{4-[(methylamino)methyl]phenyl}-1,2,3,4-tetrahydro-4-quinolinamine hydrochloride]",≤ 10 µM
7,"CC(=O)N1c2ccc(-c3ccc(N)nc3)cc2[C@@H](Nc2ccccc2)C[C@H]1C (racemic) [Example 132, (cis)-1-Acetyl-6-(6-amino-3-pyridinyl)-2-methyl-N-phenyl-1,2,3,4-tetrahydro-4-quinolinamine hydrochloride]",≤ 10 µM
8,"CC(=O)N1c2ccc(-c3ccc(CN4CCCCC4)cc3)cc2[C@@H](Nc2ccncc2)C[C@H]1C (racemic) [Example 138, (cis)-1-Acetyl-2-methyl-6-[4-(1-piperidinylmethyl)phenyl]-N-4-pyridinyl-1,2,3,4-tetrahydro-4-quinolinamine trifluoroacetate]",≤ 10 µM
9,"CC(=O)N1c2ccc(-c3ccc(CN4CCCCC4)cc3)cc2[C@@H](Nc2ccc(Cl)cn2)C[C@H]1C (racemic) [Example 136, (cis)-1-Acetyl-N-(5-chloro-2-pyridinyl)-2-methyl-6-[4-(1-piperidinylmethyl)phenyl]-1,2,3,4-tetrahydro-4-quinolinamine formate salt]",≤ 10 µM

# Test system: LPS induced IL-6 secretion from whole blood
# Assay: Measurement of LPS Induced IL-6 Secretion from Whole Blood
# Assay type: cell-based
# Conditions: LPS 200 ng/ml, 24 hours, read-out: pIC50 (IL-6 levels) (converted)
# Protocol: Measurement of LPS Induced IL-6 Secretion from Whole Blood
# as §1, with “IL-6.” for “TNFα.”
# as §2, with “concentrations of which” for “concentrations and”, “the diluted” for “the dilution”, “to” for “to wells of”, “96 well” for “96”, “and IL-6” for “and TNFα”, “degrees. Concentration” for “degrees. Dose”
row,IC50,Compound
1,> 10 µM,CC(=O)N1c2ccc(-n3cnc(C)c3)cc2[C@H](Nc2ccc(C)cn2)C[C@@H]1C [Example 190]
2,≤ 10 µM,"CC(=O)N1c2ccc(-n3cnc(C)c3)cc2[C@@H](Nc2ccc(C#N)cn2)C[C@H]1C (racemic) [Example 159, 6-{[(cis)-1-acetyl-2-methyl-6-(4-methyl-1H-imidazol-1-yl)-1,2,3,4-tetrahydro-4-quinolinyl]amino}-3-pyridinecarbonitrile]"
3,≤ 10 µM,"CNCCn1cc(-c2ccc3c(c2)[C@H](Nc2ccc(C)cn2)C[C@H](C)N3C(C)=O)cn1 [Example 155, (2S,4R)-1-Acetyl-2-methyl-6-{1-[2-(methylamino)ethyl]-1H-pyrazol-4-yl}-N-(5-methyl-2-pyridinyl)-1,2,3,4-tetrahydro-4-quinolinamine hydrochloride]"
4,≤ 10 µM,"CNCCn1cc(-c2ccc3c(c2)[C@H](Nc2cccc(C)n2)C[C@H](C)N3C(C)=O)cn1 [Example 147, (2S,4R)-1-Acetyl-2-methyl-6-{1-[2-(methylamino)ethyl]-1H-pyrazol-4-yl}-N-(6-methyl-2-pyridinyl)-1,2,3,4-tetrahydro-4-quinolinamine hydrochloride]"
5,≤ 10 µM,"CNCCn1cc(-c2ccc3c(c2)[C@H](Nc2ccc(F)cn2)C[C@H](C)N3C(C)=O)cn1 [Example 154, (2S,4R)-1-Acetyl-N-(5-fluoro-2-pyridinyl)-2-methyl-6-{1-[2-(methylamino)ethyl]-1H-pyrazol-4-yl}-1,2,3,4-tetrahydro-4-quinolinamine hydrochloride]"
6,≤ 10 µM,"CNCCn1cc(-c2ccc3c(c2)[C@H](Nc2cc(C)ccn2)C[C@H](C)N3C(C)=O)cn1 [Example 149, (2S,4R)-1-Acetyl-2-methyl-6-{1-[2-(methylamino)ethyl]-1H-pyrazol-4-yl}-N-(4-methyl-2-pyridinyl)-1,2,3,4-tetrahydro-4-quinolinamine hydrochloride]"
7,> 10 µM,"CC(=O)N1c2ccc(-n3cnc(C)c3)cc2[C@@H](Nc2ccc(C(=O)O)cn2)C[C@H]1C (racemic) [Example 143, 6-{[(cis)-1-acetyl-2-methyl-6-(4-methyl-1H-imidazol-1-yl)-1,2,3,4-tetrahydro-4-quinolinyl]amino}-3-pyridinecarboxylic acid]"
8,> 10 µM,"CC(=O)N1c2ccc(-c3ccc(C(=O)O)cc3)cc2[C@H](Nc2ccc(C)cn2)C[C@@H]1C [Example 126, 4-{(2S,4R)-1-Acetyl-2-methyl-4-[(5-methyl-2-pyridinyl)amino]-1,2,3,4-tetrahydro-6-quinolinyl}benzoic acid]"

# The remaining lines, values behind:
row,Compound,IC50
1,"CNCCn1cc(-c2ccc3c(c2)[C@H](Nc2cccc(F)n2)C[C@H](C)N3C(C)=O)cn1 [Example 151, (2S,4R)-1-Acetyl-N-(6-fluoro-2-pyridinyl)-2-methyl-6-{1-[2-(methylamino)ethyl]-1H-pyrazol-4-yl}-1,2,3,4-tetrahydro-4-quinolinamine hydrochloride]",≤ 10 µM
2,"CNCCn1cc(-c2ccc3c(c2)[C@H](Nc2cnccn2)C[C@H](C)N3C(C)=O)cn1 [Example 152, (2S,4R)-1-Acetyl-2-methyl-6-{1-[2-(methylamino)ethyl]-1H-pyrazol-4-yl}-N-2-pyrazinyl-1,2,3,4-tetrahydro-4-quinolinamine hydrochloride]",≤ 10 µM
3,"CNCCn1cc(-c2ccc3c(c2)[C@H](Nc2ncccc2C)C[C@H](C)N3C(C)=O)cn1 [Example 148, (2S,4R)-1-Acetyl-2-methyl-6-{1-[2-(methylamino)ethyl]-1H-pyrazol-4-yl}-N-(3-methyl-2-pyridinyl)-1,2,3,4-tetrahydro-4-quinolinamine hydrochloride]",≤ 10 µM
4,"CNCCn1cc(-c2ccc3c(c2)[C@H](Nc2ccncc2)C[C@H](C)N3C(C)=O)cn1 [Example 130, (2S,4R)-1-Acetyl-2-methyl-6-{1-[2-(methylamino)ethyl]-1H-pyrazol-4-yl}-N-4-pyridinyl-1,2,3,4-tetrahydro-4-quinolinamine formate salt]",> 10 µM
5,"CNCCn1cc(-c2ccc3c(c2)[C@H](Nc2cc(F)ccn2)C[C@H](C)N3C(C)=O)cn1 [Example 156, (2S,4R)-1-Acetyl-N-(4-fluoro-2-pyridinyl)-2-methyl-6-{1-[2-(methylamino)ethyl]-1H-pyrazol-4-yl}-1,2,3,4-tetrahydro-4-quinolinamine hydrochloride]",≤ 10 µM
6,"CNCCn1cc(-c2ccc3c(c2)[C@H](Nc2ncccn2)C[C@H](C)N3C(C)=O)cn1 [Example 153, (2S,4R)-1-Acetyl-2-methyl-6-{1-[2-(methylamino)ethyl]-1H-pyrazol-4-yl}-N-2-pyrimidinyl-1,2,3,4-tetrahydro-4-quinolinamine hydrochloride]",≤ 10 µM
7,"CNCCn1cc(-c2ccc3c(c2)[C@H](Nc2ncccc2F)C[C@H](C)N3C(C)=O)cn1 [Example 150, (2S,4R)-1-Acetyl-N-(3-fluoro-2-pyridinyl)-2-methyl-6-{1-[2-(methylamino)ethyl]-1H-pyrazol-4-yl}-1,2,3,4-tetrahydro-4-quinolinamine hydrochloride]",≤ 10 µM
